Laboratory results as given in patent US20100325754A1, “Compositions and methods for modulating oxidative burst in plant transformation” (Syngenta Participations AG, priority 2009, published 2010).

Assays:
[1] = test system: MicroTom tomato cotyledon explants; experiment: Frequency of independent stable transgenic events and escapes in Agrobacterium-mediated MicroTom transformation (GUS staining)
Procedure: Sterilize MicroTom tomato seeds: (2.1 grams (g) of MicroTom tomato seeds, which equals approximately 900 seeds; supplied by Ball Horticultural Company, Chicago, Ill., USA. • add approximately 900 seeds to a sterile 250 milliliter (ml) flask • soak for 10 minutes (min) in the sterile 250 ml flask with ˜100 ml sterile double deionized (dd) water and then pour off the water. • add 100 ml of 70% ethanol to immerse the seeds for 1 min while stirring vigorously, pour off the ethanol, rinse the seeds 2 times with sterile dd water. • soak the seeds in 100 ml of 25% Chlorine bleach solution (chlorine bleach available under the registered trademark CLOROX®) with 3 drops of TWEEN™ 20 detergent for 10 min while stirring frequently, rinse the seeds three times with sterile dd water. • the seeds are germinated in MAGENTA™ box (available from bio-WORLD, Dublin, Ohio, United States of America) or culture box containing TGM medium (approximately 70 seeds/container), and the MAGENTA™ boxes are placed in a plastic box that is wiped down with 70% ethanol. The box cultures are placed in a dark incubator at 27° C. under the dark for 6 days (d). Seeds are distributed evenly and closely in the MAGENTA™ box, and pressed down on the media surface when placing the seeds on the germination medium.
Construct Information: The construct used in transformation contains a CaMV 35S promoter driving GUS (with GUS intron) and Nos promoter driving NPTII in Bin 19 binary vector (Frisch et al., 1995, Plant Molecular Biology 27:405-409). Agrobacterium tumefaciens strain EHA101 is used for transformation.
150 microliters (μl) of Vector 1 glycerol stock from −80° C. are placed on a fresh Luria Broth (LB)/rifampicin 50 microgram (μg)/ml/kanamycin 50 μg/ml plate on Friday of the week before transformation experiment, grown at about 28° C. for 3-4 d and stored in the refrigerator (4° C.) for the rest of the week. One day before inoculation, between 1:00 to 2:00 pm, a loopful of the bacterium cells from the freshly streaked plate is inoculated into 2 ml of liquid LB/rifampicin 50 μg/ml/kanamycin 50 μg/ml in a 17×100 Falcon tube, and grown at 28 C.° with 230 revolutions per minute (rpm) shaking. The next morning between 8:00 to 9:00 am, 0.2 ml of the overnight bacterium culture is inoculated into 2 ml of plain LB+0.2 millimeter (mM) acetosyringone in a 17×100 mm Falcon tube, and grown at about 28° C. with 230 rpm for 4 h.
Day 7 at about 2:00 pm. • 1) Cotyledon explants are isolated from seedlings 6 d after sowing seeds on TGM medium. • 2) About 25 cotyledon explants are prepared at a time by bathing them in a sterile petri dish plate containing 6 ml of Fillatti's suspension medium (FSM) liquid medium to prevent desiccation and trimming them at both ends using a #15 feather blade. Note: it is desirable to use the cotyledons that make a fairly tight “V” shape (two cotyledons that are at closed shape are acceptable to be used). • 3) Immediately after the trimming, the 25 cotyledon explants are gently placed on “feeder plates”—TCM medium. The “feeder plates” are made by overlaying 2 ml of tobacco suspension cells and a sterile WHATMAN™ filter (No. 1, Cat No. 1001090, VWR; Whatman Inc., Florham Park, N.J., United States of America) on the plates containing TCM medium. • 4) Cotyledon explants are gently poked with a sharp forceps and usually six pokes are made per explant. It is desirable that the sharp forceps gently touch the surface of explants and then make a slight movement on the touched surface in order to have a larger and shallower wounding surface that results in good transient expression. • 5) Right after poking, the cotyledons are inoculated with Agrobacterium by adding 3 ml of the Agrobacterium solution (OD600=0.1) suspended in FSM liquid medium to the top of cotyledons. The plates are incubated for 10 min at room temperature and the Agrobacterium solution is aspirated with a sterile pipette.

rice calli (Nipponbare) = experiment: Rice stable callus transformation efficiency; assay type: cell-based; details: co-cultivation and recovery media
Procedure: • 1. […] Check for any off-type seeds and discard these. • 2. Surface sterilize seeds in a 50 ml sterile tube with 70% ethanol for 1 to 2 min with shaking (ethanol treatment step is optional). • 3. Remove ethanol. • 4. Add 50% (v/v) CLOROX® bleach (2.4% Na hypochlorite) or 40% (v/v) ULTRA CLOROX® (˜3.2% Na hypochlorite) and one drop of TWEEN™-20 detergent, shake for 30-40 min on a shaker at 100-200 rpm. • 5. Remove CLOROX® solution and rinse with sterile water at least three times, until all sign of TWEEN™-20 detergent (soap bubbles) is gone. • 6. Seeds are ready to plate on sterile medium. • 7. Check for bacterial and fungal contaminations at 3 and 5 days later, respectively.
• 1. Soak sterilized seeds in sterile water for 1-2 d until fully imbibed (optional step) • 2. Plate pre-soaked or sterilized mature seeds onto rice callus induction medium (MS-CIM) at 12 seeds per plate. Culture in dark at 28° C. for 6 d prior to inoculation or for 4 weeks (wks) for production of embryogenic cultures. • 3. At 4 wks, selectively excise high quality target material and transfer to MS-CIM at 25 pieces per plate. Culture in dark for 8 d at 28° C. before inoculation.
• 1. If possible, choose bacteria from the area of the plate where there are many individual single colonies of bacteria growing for inoculation. Transfer ˜7 inoculation loops full of Agrobacterium culture to a 50 ml sterile plastic tube containing 20 ml liquid MS media with acetosyringone (As) added to 200 μM (add 1 μl As stock at 40 mg/ml per ml of suspension). Vortex to completely dissolve bacteria in liquid and bring volume to 50 ml. • 2. Measure the Agrobacterium suspension OD at 660 nm. Dilute the culture to an OD660 of 0.2-0.3 (higher concentrations can offer higher transformation frequencies but can cause damage/browning in some cultivars). Induce the bacteria with acetosyringone for at least 30 min. • 3. Inoculate cultured rice seeds or rice embryogenic culture responses by immersing target material in the bacterial suspension for 30 min. • 4. Try to make sure that all target pieces are completely immersed in the bacterial solution and shake regularly to ensure that this continues to be the case. • 5.
Transfer the inoculated seeds/cultures to multiple shoot-acetosyringone (MS-As) co-cultivation medium with sterile 85 mm filter paper. Each filter paper is wetted with 1 ml of MSInoc (see recipe below) liquid media with the concentrations of MT (in μM) listed below. Fifty (50) pieces per plate; incubate at 22° C. for 3 d. • A: Filter Paper • B: Filter Paper 2MT • C: Filter Paper 10MT • D: Filter Paper 100MT • E: Filter Paper 300MT • F: Filter Paper 1000MT
• 1. After ˜36 hours of co-cultivation, transfer the co-cultivated seeds/responses to Agrobacterium inhibition medium MS-400Tim (see recipe below) (1 plate→1 plate). Culture in the dark at 28° C. for ˜7 days. • 2. Score the scorable marker control plate for gene delivery efficiency at 4 to 5 days after co-cultivation • A: Recovery Media • B: Recovery Media+2MT • C: Recovery Media+10MT • D: Recovery Media+100MT • E: Recovery Media+300MT • F: Recovery Media+1000MT
• 1. Transfer calli to selection medium (17.5 g/l mannose/5 g/l sucrose). Culture in dark at ˜28° C. for 2 to 3 weeks, observing periodically for colony proliferation and contamination. • 2. Select mannose resistant embryogenic micro-colonies under microscope when proliferating colonies are big enough to grow independently, but not so big that they have begun to grow together. […]

[2] = test system: soybean immature seed explants; experiment: Soybean transformation frequency (TAQMAN positive plants); assay type: cell-based, Soybean (Glycine max, Jack); details: transgenic plants after rooting
[3] = test system: MicroTom tomato cotyledons; experiment: Tissue extreme browning of MicroTom tomato cotyledon explants after Agrobacterium inoculation; assay type: cell-based, Solanum lycopersicum (tomato); details: for Extreme Browning Rate: 3 days after selection
Text: For tissue browning and transient expression data collection, 3 d after selection cotyledon explant data are collected for tissue browning under a dissecting microscope, and then for transient expression by GUS staining.

[4] = epicatechin 50 mg/l, 6 weeks after selection
[5] = epicatechin 100 mg/l, 6 weeks after selection
[6] = epicatechin 1000 mg/l, 6 weeks after selection
[7] = N-t-butyl hydroxylamine 10 μM, 4 weeks after selection
[8] = N-t-butyl hydroxylamine 50 μM, 4 weeks after selection
[9] = N-t-butyl hydroxylamine 100 μM, 4 weeks after selection
[10] = resveratrol 50 μM, 6 weeks after selection
[11] = resveratrol 100 μM, 6 weeks after selection
[12] = resveratrol 200 μM, 6 weeks after selection

SMILES: Oc1cc(O)c2c(c1)O[C@H](c1ccc(O)c(O)c1)[C@H](O)C2 [Epicatechin, epicatechin]
- Frequency of escapes [1, 4]: 1.7 ± 2.4%
- Frequency of independent stable transgenic events [1, 4]: 418.3 ± 25.9 B %
- Frequency of escapes [1, 5]: 0.0 ± 0.0%
- Frequency of independent stable transgenic events [1, 5]: 521.7 ± 16.5 A %
- Frequency of escapes ([1]; epicatechin 100 mg/l, 6 weeks after selection, listed as epicatechin): 0%
- toxicity to plant tissues (inferred from reduced stable transformation frequency) ([1]; epicatechin 1000 mg/l): might be toxic to plant tissues at that concentration
- Frequency of escapes [1, 6]: 1.7 ± 2.4%
- Frequency of independent stable transgenic events [1, 6]: 51.7 ± 2.4 D %

SMILES: COc1ccc2[nH]cc(CCNC(C)=O)c2c1 [melatonin, N-Acetyl-5-methoxytryptamine]
- % of stable callus sectors (rice calli (Nipponbare); melatonin 2 μM in inoculation, transgenic callus after selection, 50 explants): 148.0%
- % of stable callus sectors (rice calli (Nipponbare); melatonin 10 μM in inoculation, after selection): 156.0%
- % of stable callus sectors (rice calli (Nipponbare); melatonin 100 μM in inoculation, after selection): 140.0%
- % of stable callus sectors (rice calli (Nipponbare); melatonin 300 μM in inoculation, after selection): 140.0%
- % of stable callus sectors (rice calli (Nipponbare); melatonin 1000 μM in inoculation, after selection): 86.0%
- Frequency of escapes ([1]; melatonin 10 μM, 4 weeks after selection): 1.7 ± 0.0%
- Frequency of independent stable transgenic events ([1]; melatonin 10 μM, 4 weeks after selection, Table 5): 214.4% ± 6.2 A
- Frequency of escapes ([1]; melatonin 50 μM, 4 weeks after selection): 0.0 ± 0.0%
- Frequency of independent stable transgenic events ([1]; melatonin 50 μM, 4 weeks after selection, Table 5): 221.3% ± 47.7 A
- Frequency of escapes ([1]; melatonin 100 μM, 4 weeks after selection): 0.0 ± 0.0%
- Frequency of independent stable transgenic events ([1]; melatonin 100 μM, 4 weeks after selection, Table 5): 229.4% ± 55.7 A
- Frequency of independent stable transgenic events ([1]; melatonin 100 μM, 4 weeks after selection, Table 6 (second set)): 213.3% ± 75.4 A
- Frequency of independent stable transgenic events ([1]; melatonin 500 μM, 4 weeks after selection, Table 6): 121.7% ± 1.7 B
- Frequency of independent stable transgenic events ([1]; melatonin 1000 μM, 4 weeks after selection, Table 6): 80.0% ± 14.1 B
- frequency of independent stable transgenic events, increased to ([1]; melatonin at 10, 50 and 100 μM, from 88% in negative control without melatonin): 229%
- Transformation frequency ([2]; melatonin 1 μM in infection and co-cultivation media, glyphosate selection): 7.6% +
- Transformation frequency ([2]; melatonin 10 μM in infection and co-cultivation media): 7.5% +
- Transformation frequency ([2]; melatonin 100 μM in infection and co-cultivation media): 4.5% +
- Extreme Browning Rate ([3]; 10 μM melatonin in selection stage media, percentage of pokes with browning area ≧70%, Table 3): 21.5%
- tissue browning reduced, compared to the negative control ([3]; 10 μM melatonin in transformation media): 3.0 fold
- Extreme Browning Rate ([3]; 50 μM melatonin in selection stage media, Table 3): 11.8%
- tissue browning reduced, compared to the negative control ([3]; 50 μM melatonin in transformation media): 5.5 fold
- Extreme Browning Rate ([3]; 100 μM melatonin in selection stage media, Table 3 (first set)): 6.4%
- tissue browning reduced, compared to the negative control ([3]; 100 μM melatonin in transformation media): 10.2 fold
- Extreme Browning Rate ([3]; 100 μM melatonin, Table 4 (second set)): 22.2%
- Extreme Browning Rate ([3]; 500 μM melatonin, Table 4): 21.0%
- Extreme Browning Rate ([3]; 1000 μM melatonin, Table 4): 50.6%

SMILES: CC(C)(C)NO [N-t-butyl hydroxylamine]
- reduction of frequency of escapes compared with the negative control ([1]; N-t-butyl hydroxylamine 10 μM): 2.5 fold
- Frequency of escapes [1, 7]: 4.4 ± 5.1%
- Frequency of independent stable transgenic events [1, 7]: 245.6 ± 44.0 A %
- Frequency of escapes [1, 8]: 6.7 ± 3.3%
- Frequency of independent stable transgenic events [1, 8]: 222.2 ± 9.6 AB %
- Frequency of escapes [1, 9]: 8.9 ± 1.9%
- Frequency of independent stable transgenic events [1, 9]: 205.6 ± 10.2 AB %

SMILES: Oc1ccc(C=Cc2cc(O)cc(O)c2)cc1 [Resveratrol, resveratrol]
- Frequency of escapes [1, 10]: 4.4 ± 7.7%
- Frequency of independent stable transgenic events [1, 10]: 297.8 ± 24.6 B %
- reduction of escapes compared with the negative control ([1]; resveratrol 100 μM): 5 fold
- Frequency of escapes [1, 11]: 1.1 ± 1.9%
- Frequency of independent stable transgenic events [1, 11]: 356.7 ± 10.0 A %
- Frequency of escapes [1, 12]: 1.1 ± 1.9%
- Frequency of independent stable transgenic events [1, 12]: 227.8 ± 17.1 C %
